# Data taken from patent US20220281876A1, “DEGRADATION OF BRUTON'S TYROSINE KINASE (BTK) BY CONJUGATION OF BTK INHIBITORS WITH E3 LIGASE LIGAND AND METHODS OF USE” (BEIGENE, LTD., priority 2019, published 2022).
# Target: T1, BTK (Homo sapiens, UniProt Q06187)
# T1 construct: endogenous in cells; host or cells: Ramos cells
# Test: BTK cell degradation in Ramos cells (total BTK ELISA)
# Format: cell-based
# Conditions: 16 h incubation, FastScan total BTK ELISA
# Protocol: Ramos cells are treated with compounds diluted in 0.1% DMSO, dilution is done according to the following protocol: (1) make 1000x stock solution in DMSO from 10 mM by 5-fold dilution, total 7 doses were included; (2) make 10x solution in cell culture medium by transferring 1 ul 1000x stock solution into 99 ul medium; (3) 11 ul of 10× solution is added to cells and incubate for 16 h.
# Cells in 96 well plate are harvested by centrifugation (1200 rpm), and wash once with ice-cold PBS. Then, 100 ul 1×cell extraction buffer is added in each well. The cells are placed on a shaker for 20 min at 4° C.; 5 ul lysate is transferred to 45 ul of 1×cell extraction buffer in ELISA plate, and 50 ul of the antibody cocktail is added in each well; seal the plate and incubate 1 hour at room temperature on a plate shaker; medium is discarded from the plate, tap the plated on a paper towel, wash 3×200 ul ELISA wash buffer; add 100 ul of TMB to each well and incubate the plate in the dark for 15 min at room temperature on a shaker; add 100 ul of STOP solution to each well; read absorbance at 450 nm. The BTK ELISA assay was performed using FastScan total BTK ELISA kit (Cell Signaling Cat #36609).
# T1 sequence (Q06187 whole entry): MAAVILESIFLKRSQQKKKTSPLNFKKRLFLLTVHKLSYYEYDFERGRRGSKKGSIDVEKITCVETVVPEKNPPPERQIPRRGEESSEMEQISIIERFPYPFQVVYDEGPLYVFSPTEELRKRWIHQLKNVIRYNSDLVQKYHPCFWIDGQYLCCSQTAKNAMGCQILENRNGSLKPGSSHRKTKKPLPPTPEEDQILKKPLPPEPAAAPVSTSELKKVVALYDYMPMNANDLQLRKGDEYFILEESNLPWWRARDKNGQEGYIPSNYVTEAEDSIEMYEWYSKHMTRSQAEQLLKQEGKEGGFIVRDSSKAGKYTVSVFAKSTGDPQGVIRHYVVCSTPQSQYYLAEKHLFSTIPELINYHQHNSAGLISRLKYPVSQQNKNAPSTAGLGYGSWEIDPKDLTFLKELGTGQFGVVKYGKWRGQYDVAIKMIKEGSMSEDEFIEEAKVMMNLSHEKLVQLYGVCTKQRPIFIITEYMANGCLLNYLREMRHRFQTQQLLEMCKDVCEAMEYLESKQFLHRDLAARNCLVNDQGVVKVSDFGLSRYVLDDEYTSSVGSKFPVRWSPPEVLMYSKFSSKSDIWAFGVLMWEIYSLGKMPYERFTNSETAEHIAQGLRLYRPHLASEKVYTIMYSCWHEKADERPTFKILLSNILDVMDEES
row,Compound,DC50
1,"NC(=O)c1c(-c2ccc(Oc3ccccc3)cc2)nn2c1NCC[C@H]2C1CCN(C(=O)c2cn(CCOCCOCCNc3cccc4c3C(=O)N(C3CCC(=O)NC3=O)C4=O)nn2)CC1 (stereo partly drawn) [Example 3, (7S)-7-(1-(1-(2-(2-(2-((2-(2,6-dioxopiperidin-3-yl)-1,3-dioxoisoindolin-4-yl)amino)ethoxy)ethoxy)ethyl)-1H-1,2,3-triazole-4-carbonyl)piperidin-4-yl)-2-(4-phenoxyphenyl)-4,5,6,7-tetrahydropyrazolo[1,5-a]pyrimidine-3-carboxamide]",> 10000 nM
2,"NC(=O)c1c(-c2ccc(Oc3ccccc3)cc2)nn2c1NCC[C@H]2C1CCN(C(=O)c2cn(CCOCCOCC#Cc3cccc4c3CN(C3CCC(=O)NC3=O)C4=O)nn2)CC1 (stereo partly drawn) [Example 4, (7S)-7-(1-(1-(2-(2-((3-(2-(2,6-dioxopiperidin-3-yl)-1-oxoisoindolin-4-yl)prop-2-yn-1-yl)oxy)ethoxy)ethyl)-1H-1,2,3-triazole-4-carbonyl)piperidin-4-yl)-2-(4-phenoxyphenyl)-4,5,6,7-tetrahydropyrazolo[1,5-a]pyrimidine-3-carboxamide]",> 10000 nM
3,"NC(=O)c1c(-c2ccc(Oc3ccccc3)cc2)nn2c1NCC[C@H]2C1CCN(C(=O)c2cn(CCOCCOCCCc3cccc4c3CN(C3CCC(=O)NC3=O)C4=O)nn2)CC1 (stereo partly drawn) [Example 5, (7S)-7-(1-(1-(2-(2-(3-(2-(2,6-dioxopiperidin-3-yl)-1-oxoisoindolin-4-yl)propoxy)ethoxy)ethyl)-1H-1,2,3-triazole-4-carbonyl)piperidin-4-yl)-2-(4-phenoxyphenyl)-4,5,6,7-tetrahydropyrazolo[1,5-a]pyrimidine-3-carboxamide]",> 10000 nM
4,"NC(=O)c1c(-c2ccc(Oc3ccccc3)cc2)nn2c1NCC[C@H]2C1CCN(C(=O)c2cn(CCOCCOCCNc3ccc4c(c3)C(=O)N(C3CCC(=O)NC3=O)C4=O)nn2)CC1 (stereo partly drawn) [Example 7, (7S)-7-(1-(1-(2-(2-(2-((2-(2,6-dioxopiperidin-3-yl)-1,3-dioxoisoindolin-5-yl)amino)ethoxy)ethoxy)ethyl)-1H-1,2,3-triazole-4-carbonyl)piperidin-4-yl)-2-(4-phenoxyphenyl)-4,5,6,7-tetrahydropyrazolo[1,5-a]pyrimidine-3-carboxamide]",> 10000 nM
5,"NC(=O)c1c(-c2ccc(Oc3ccccc3)cc2)nn2c1NCC[C@H]2C1CCN(C(=O)c2cn(CCOCCOCCOCC#Cc3cccc4c3CN(C3CCC(=O)NC3=O)C4=O)nn2)CC1 (stereo partly drawn) [Example 9, (7S)-7-(1-(1-(2-(2-(2-((3-(2-(2,6-dioxopiperidin-3-yl)-1-oxoisoindolin-4-yl)prop-2-yn-1-yl)oxy)ethoxy)ethoxy)ethyl)-1H-1,2,3-triazole-4-carbonyl)piperidin-4-yl)-2-(4-phenoxyphenyl)-4,5,6,7-tetrahydropyrazolo[1,5-a]pyrimidine-3-carboxamide]",> 10000 nM
6,"NC(=O)c1c(-c2ccc(Oc3ccccc3)cc2)nn2c1NCC[C@H]2C1CCN(C(=O)c2cn(CCOCCOCCOCCOCCCc3cccc4c3CN(C3CCC(=O)NC3=O)C4=O)nn2)CC1 (stereo partly drawn) [Example 10, (7S)-7-(1-(1-(15-(2-(2,6-dioxopiperidin-3-yl)-1-oxoisoindolin-4-yl)-3,6,9, 12-tetraoxapentadecyl)-1H-1,2,3-triazole-4-carbonyl)piperidin-4-yl)-2-(4-phenoxyphenyl)-4,5,6,7-tetrahydropyrazolo[1,5-a]pyrimidine-3-carboxamide]",> 10000 nM
7,"NC(=O)c1c(-c2ccc(Oc3ccccc3)cc2)nn2c1NCC[C@H]2C1CCN(C(=O)c2cn(CCOCCOCCOCCOCCNc3ccc4c(c3)C(=O)N(C3CCC(=O)NC3=O)C4=O)nn2)CC1 (stereo partly drawn) [Example 12, (7S)-7-(1-(1-(14-((2-(2,6-dioxopiperidin-3-yl)-1,3-dioxoisoindolin-5-yl)amino)-3,6,9, 12-tetraoxatetradecyl)-1H-1,2,3-triazole-4-carbonyl)piperidin-4-yl)-2-(4-phenoxyphenyl)-4,5,6,7-tetrahydropyrazolo[1,5-a]pyrimidine-3-carboxamide]",> 10000 nM

# Further lines, results first:
row,DC50,Compound
1,244 nM,"NC(=O)c1c(-c2ccc(Oc3ccccc3)cc2)nn2c1NCCC2C1CCN(C(=O)CC2CCC(N3CCN(c4ccc5c(c4)C(=O)N(C4CCC(=O)NC4=O)C5=O)CC3)CC2)CC1 (stereo in doubt) [Example 147, (7R)-7-(1-(2-(4-(4-(2-(2,6-dioxopiperidin-3-yl)-1,3-dioxoisoindolin-5-yl)piperazin-1-yl)cyclohexyl)acetyl)piperidin-4-yl)-2-(4-phenoxyphenyl)-4,5,6,7-tetrahydropyrazolo[1,5-a]pyrimidine-3-carboxamide]"
2,> 10000 nM,"NC(=O)c1c(-c2ccc(Oc3ccccc3)cc2)nn2c1NCC[C@H]2C1CCN(C(=O)c2cn(CCOCCCc3cccc4c3CN(C3CCC(=O)NC3=O)C4=O)nn2)CC1 (stereo partly drawn) [Example 1, (7S)-7-(1-(1-(2-(3-(2-(2,6-dioxopiperidin-3-yl)-1-oxoisoindolin-4-yl)propoxy)ethyl)-1H-1,2,3-triazole-4-carbonyl)piperidin-4-yl)-2-(4-phenoxyphenyl)-4,5,6,7-tetrahydropyrazolo[1,5-a]pyrimidine-3-carboxamide]"
3,> 10000 nM,"NC(=O)c1c(-c2ccc(Oc3ccccc3)cc2)nn2c1NCC[C@H]2C1CCN(C(=O)c2cn(CCOCCNc3cccc4c3C(=O)N(C3CCC(=O)NC3=O)C4=O)nn2)CC1 (stereo partly drawn) [Example 2, (7S)-7-(1-(1-(2-(2-((2-(2,6-dioxopiperidin-3-yl)-1,3-dioxoisoindolin-4-yl)amino)ethoxy)ethyl)-1H-1,2,3-triazole-4-carbonyl)piperidin-4-yl)-2-(4-phenoxyphenyl)-4,5,6,7-tetrahydropyrazolo[1,5-a]pyrimidine-3-carboxamide]"
4,242 nM,"NC(=O)c1c(-c2ccc(Oc3ccccc3)cc2)nn2c1NCC[C@H]2C1CCN(C(=O)c2cn(CCOCCOCCOCCCc3cccc4c3CN(C3CCC(=O)NC3=O)C4=O)nn2)CC1 (stereo partly drawn) [Example 6, (7S)-7-(1-(1-(2-(2-(2-(3-(2-(2,6-dioxopiperidin-3-yl)-1-oxoisoindolin-4-yl)propoxy)ethoxy)ethoxy)ethyl)-1H-1,2,3-triazole-4-carbonyl)piperidin-4-yl)-2-(4-phenoxyphenyl)-4,5,6,7-tetrahydropyrazolo[1,5-a]pyrimidine-3-carboxamide]"
5,128 nM,"NC(=O)c1c(-c2ccc(Oc3ccccc3)cc2)nn2c1NCC[C@H]2C1CCN(C(=O)c2cn(CCOCCOCCOCCNc3cccc4c3C(=O)N(C3CCC(=O)NC3=O)C4=O)nn2)CC1 (stereo partly drawn) [Example 8, (7S)-7-(1-(1-(2-(2-(2-(2-((2-(2,6-dioxopiperidin-3-yl)-1,3-dioxoisoindolin-4-yl)amino)ethoxy)ethoxy)ethoxy)ethyl)-1H-1,2,3-triazole-4-carbonyl)piperidin-4-yl)-2-(4-phenoxyphenyl)-4,5,6,7-tetrahydropyrazolo[1,5-a]pyrimidine-3-carboxamide]"
6,176 nM,"NC(=O)c1c(-c2ccc(Oc3ccccc3)cc2)nn2c1NCC[C@H]2C1CCN(C(=O)c2cn(CCOCCOCCOCCOCC#Cc3cccc4c3CN(C3CCC(=O)NC3=O)C4=O)nn2)CC1 (stereo partly drawn) [Example 11, (7S)-7-(1-(1-(15-(2-(2,6-dioxopiperidin-3-yl)-1-oxoisoindolin-4-yl)-3,6,9, 12-tetraoxapentadec-14-yn-1-yl)-1H-1,2,3-triazole-4-carbonyl)piperidin-4-yl)-2-(4-phenoxyphenyl)-4,5,6,7-tetrahydropyrazolo[1,5-a]pyrimidine-3-carboxamide]"
7,78 nM,"NC(=O)c1c(-c2ccc(Oc3ccccc3)cc2)nn2c1NCC[C@H]2C1CCN(C(=O)c2cn(CCOCCOCCOCCOCCOCCNc3ccc4c(c3)C(=O)N(C3CCC(=O)NC3=O)C4=O)nn2)CC1 (stereo partly drawn) [Example 14, (7S)-7-(1-(1-(17-((2-(2,6-dioxopiperidin-3-yl)-1,3-dioxoisoindolin-5-yl)amino)-3,6,9, 12, 15-pentaoxaheptadecyl)-1H-1,2,3-triazole-4-carbonyl)piperidin-4-yl)-2-(4-phenoxyphenyl)-4,5,6,7-tetrahydropyrazolo[1,5-a]pyrimidine-3-carboxamide]"
8,78 nM,"NC(=O)c1c(-c2ccc(Oc3ccccc3)cc2)nn2c1NCC[C@H]2C1CCN(C(=O)c2cn(CCOCCOCCOCCOCCOCCNc3cccc4c3C(=O)N(C3CCC(=O)NC3=O)C4=O)nn2)CC1 (stereo partly drawn) [Example 15, (7S)-7-(1-(1-(17-((2-(2,6-dioxopiperidin-3-yl)-1,3-dioxoisoindolin-4-yl)amino)-3,6,9, 12, 15-pentaoxaheptadecyl)-1H-1,2,3-triazole-4-carbonyl)piperidin-4-yl)-2-(4-phenoxyphenyl)-4,5,6,7-tetrahydropyrazolo[1,5-a]pyrimidine-3-carboxamide]"
9,107 nM,"NC(=O)c1c(-c2ccc(Oc3ccccc3)cc2)nn2c1NCC[C@H]2C1CCN(C(=O)c2cn(CCOCCOCCOCCOCCOCCOCCNc3cccc4c3C(=O)N(C3CCC(=O)NC3=O)C4=O)nn2)CC1 (stereo partly drawn) [Example 16, (7S)-7-(1-(1-(20-((2-(2,6-dioxopiperidin-3-yl)-1,3-dioxoisoindolin-4-yl)amino)-3,6,9, 12, 15, 18-hexaoxaicosyl)-1H-1,2,3-triazole-4-carbonyl)piperidin-4-yl)-2-(4-phenoxyphenyl)-4,5,6,7-tetrahydropyrazolo[1,5-a]pyrimidine-3-carboxamide]"
